Experimental data from patent publication US20080260774A1, “Alpha-galactosyl ceramide analogs and their use as immunotherapies” (priority 2007, published 2008).

Key:
[1] = system: human naïve NKTs (CD161^+CD3^+); experiment: Cytokine/chemokine secretion by human naïve CD161+CD3+ NKTs co-cultured with autologous immature CD14+ DCs; type: cell-based
naïve CD161^+/CD3^+ NKTs = experiment: Human NKT TCR activation (phosphoproteins), glycolipid presented by HeLa, HeLa-CD1d or iDCs, 10 μg/ml; type: cell-based; details: for intracellular phospho-CD3ε / phospho-CREB / phospho-ERK1/2: 10 μg/ml
BALB/c mice [2] = experiment: Mouse serum cytokines/chemokines after IV, SubQ or IM injection; type: in vivo
BALB/c mice [3] = experiment: Expansion/activation of mouse splenocyte subpopulations 72 h after injection; type: in vivo
[4] = system: syngeneic lung cancer (TC1) cells; experiment: Lung cancer model in mice (TC1, IV inoculation); type: in vivo, mouse; details: IV administration
[5] = system: syngeneic breast cancer (4T1); experiment: Breast cancer model in mice (4T1, SubQ inoculation); type: in vivo, mouse; details: SubQ delivery
[6] = system: H5 of avian influenza viruses (pHA); type: in vivo, mouse; details: mouse, in vivo
[7] = system: FLU-A virus serotype H1N1 (WSN); experiment: Influenza virus H1N1 (WSN) infection in BALB/c mice; details: mouse, in vivo
[8] = system: FLU-A virus serotype H1N1 (WSN); experiment: Cytopathetic effect / virus titer in MDCK cells infected with H1N1 (WSN); type: cell-based
Experimental: FIG. 60(A-B) show the cytopathetic effect (CPE) of Madin-Darby canine kidney (MDCK) cells in vitro. MDCK cells were pretreated with vehicle, α-GalCer or one of the α-GalCer analogs C13, C14 or C16 at 10 μg/ml for four hours, followed by infection with FLU-A virus serotype H1N1 (WSN) at 10TCID50.
BALB/c mice were treated via intranasal route with control, α-GalCer (C1) or the α-GalCer analogs C13, C14 or C16 at one hour prior to virus challenge with H1N1 (WSN). […] In general, certain α-GalCer analogs may exert direct anti-viral effects, or act indirectly via immune stimulation. […] MDCK cells were pretreated with vehicle, α-GalCer or one of the α-GalCer analogs C13, C14 or C16 at 10 μg/ml for four hours, followed by infection with FLU-A virus serotype H1N1 (WSN) at 10TCID50.

[9] = system: human monocyte-derived DCs; experiment: Maturation of human monocyte-derived dendritic cells

Q: Which “secretion of IFN-γ” value ([1]; 10 μg/ml, 18 hour culture, compared with α-GalCer) does the source give for CCCCCCCCCCCCCCCCCCCCCCCCCC(=O)N[C@@H](CO[C@H]1O[C@H](CO)[C@H](O)[C@H](O)[C@H]1O)[C@H](O)[C@H](O)CCc1ccccc1 [C13] here?
A: The value was “significantly greater secretion of IFN-γ than α-GalCer”.

Q: And the induction of chemokines ([1]; compared with α-GalCer)?
A: The induction of chemokines was “striking increase in chemokines such as MIP-11, MCP-1, and IL-8”.

Q: What about the “IFN/IL-4 ratio (TH1/TH2 bias)” value ([1]; normalized to DMSO control) of the same molecule?
A: The value was “more TH1-biased”.

Q: What about the TCR activation (naïve CD161^+/CD3^+ NKTs; CD1d-dependent, HeLa-CD1d or DCs) of the same molecule?
A: The TCR activation was “stronger in TCR activation than compounds C1 and C17”.

Q: What about the “intracellular phospho-CD3ε” value (naïve CD161^+/CD3^+ NKTs; presented by DCs) of the same molecule?
A: Its value is 17.3 folds.

Q: And the phospho-CREB (naïve CD161^+/CD3^+ NKTs; presented by DCs)?
A: Its phospho-CREB is 158 folds increase.

Q: And the “intracellular phospho-CD3ε” value (naïve CD161^+/CD3^+ NKTs; presented by HeLa-CD1d cells)?
A: Its value is 7.3 folds of control.

Q: And the phospho-CREB (naïve CD161^+/CD3^+ NKTs; presented by HeLa-CD1d cells)?
A: Its phospho-CREB is 41 folds expression.

Q: What about the phospho-ERK1/2 (naïve CD161^+/CD3^+ NKTs; with DCs) of the same molecule?
A: The phospho-ERK1/2 was 35 folds.

Q: What about the phospho-ERK1/2 (naïve CD161^+/CD3^+ NKTs; with HeLa-CD1d cells) of the same molecule?
A: Its phospho-ERK1/2 is 6.6 folds increase.

Q: What about the “IFN-γ/IL-4 ratio (TH1/TH2 bias)” value (BALB/c mice [2]; 2 hours, IV route, compared with C1) of the same molecule?
A: The value was “less TH2 responses than C1”.

Q: What about the “serum IL-2, IL-12, MIP-1β and MCP-1” value (BALB/c mice [2]; IV administration) of the same molecule?
A: The value was “striking rises in IL-2, IL-12, MIP-1β and MCP-1”.

Q: What about the “total and mature DCs” value (BALB/c mice [3]; FIGS. 26B, 28B and 30B, compared with C1) of the same molecule?
A: The value was “significantly greater rises in total and mature DCs than C1”.

Q: What about the “CD8^+/CD4^+ ratio” value (BALB/c mice [3]; FIGS. 26H, 28H and 30H) of the same molecule?
A: Its value is “more potent than C1”.

Q: What about the splenocyte expansion (BALB/c mice [3]; IM administration, 72 hours) of the same molecule?
A: Its splenocyte expansion is “greater effects than C1”.

Q: What about the expansion of splenocytes (BALB/c mice [3]; IV administration, 72 hours) of the same molecule?
A: Its expansion of splenocytes is “greater potency than C1”.

Q: And the “CD4^+ T cells” value (BALB/c mice [3]; SubQ route)?
A: Its value is “more active over control”.

Q: What about the “CD8^+ T cells” value (BALB/c mice [3]; SubQ route) of the same molecule?
A: The value was “more activity than C1”.

Q: What about the B cell expansion/activation (BALB/c mice [3]; mouse, in vivo) of the same molecule?
A: Its B cell expansion/activation is “significant activities”.

Q: And the “CD8^+ T cell expansion/activation” value (BALB/c mice [3]; mouse, in vivo)?
A: The value was “more active than C1”.

Q: What about the “NK and NKT expansion/activation” value (BALB/c mice [3]; mouse, in vivo) of the same molecule?
A: The value was “comparable activities as C1”.

Q: What about the “expansion/activation of NKs and NKTs” value (BALB/c mice [3]; mouse, in vivo) of the same molecule?
A: The value was “best capacity for expansion/activation of NKs and NKTs”.

Q: What about the “anti-cancer efficacy compared with C1” value [4] of the same molecule?
A: Its value is “significantly greater anti-cancer efficacy than C1”.

Q: And the “effects on survival compared with C1” value [5]?
A: Its value is “did not differ significantly from that of C1”.

Q: What about the “suppression of tumor size compared with C1” value [5] of the same molecule?
A: Its value is “significantly greater suppression of tumor size than C1”.

Q: What about the “tumor growth and survival compared to control” value [5] of the same molecule?
A: Its value is “able to suppress tumor growth and prolong survival as compared to control”.

Q: And the “adjuvant activities in enhancing the anti-HAc antibody titer” value [6]?
A: The value was “better adjuvant activities than the others in enhancing the antibody titer”.

Q: What about the effectiveness as adjuvant [6] of the same molecule?
A: Its effectiveness as adjuvant is “particularly effective as adjuvants”.

Q: And the “cumulative proportion of survival” value [7]?
A: Its value is “prolonged survival”.

Q: What about the survival [7] of the same molecule?
A: Its survival is “significantly enhanced survival”.

Q: And the “entry/replication of H1N1 virus (virus titer)” value [8]?
A: The value was “slight inhibition of the entry/replication of H1N1 virus in vitro”.

Q: What about the “maturation of human monocyte-derived DCs” value [9] of the same molecule?
A: The value was “promotes maturation of human monocyte-derived DCs”.
